Source: ChEMBL document CHEMBL6078699, “Constrained β-Hairpins Targeting the EphA4 Ligand Binding Domain” (J Med Chem, 2024)
The source made the active and inactive calls. No cut-off for these calls is given here. Numbered stars: 1 amine (or outer) side, 2 acyl side, 3 side chain; on linkers, the order of the positions; unused ones are H or OH. Square brackets hold non-standard residues; d marks the D form. Peptide text beside a SMILES is read from it. Azetidine3carboxylic = O=C(C1CN([*:1])C1)[*:2]; βPro(3R) = O=C([C@@H]1CCN([*:1])C1)[*:2]; βPro(3S) = O=C([C@H]1CCN([*:1])C1)[*:2]; X2 = O=C([C@H]1CCCN([*:1])C1)[*:2]; βAla = NCCC(=O)O

target: Ephrin type-A receptor 4 (Mus musculus) (UniProt Q03137); assay: Induction of EphA4 phosphorylation in C57BL/6 mouse Primary cortical neuron at 1 to 10 uM incubated for 30 mins by immunoprecipitation based Western blot analysis; type: cell-based; conditions: dose 1-10 µM
Sequence (Q03137 whole entry): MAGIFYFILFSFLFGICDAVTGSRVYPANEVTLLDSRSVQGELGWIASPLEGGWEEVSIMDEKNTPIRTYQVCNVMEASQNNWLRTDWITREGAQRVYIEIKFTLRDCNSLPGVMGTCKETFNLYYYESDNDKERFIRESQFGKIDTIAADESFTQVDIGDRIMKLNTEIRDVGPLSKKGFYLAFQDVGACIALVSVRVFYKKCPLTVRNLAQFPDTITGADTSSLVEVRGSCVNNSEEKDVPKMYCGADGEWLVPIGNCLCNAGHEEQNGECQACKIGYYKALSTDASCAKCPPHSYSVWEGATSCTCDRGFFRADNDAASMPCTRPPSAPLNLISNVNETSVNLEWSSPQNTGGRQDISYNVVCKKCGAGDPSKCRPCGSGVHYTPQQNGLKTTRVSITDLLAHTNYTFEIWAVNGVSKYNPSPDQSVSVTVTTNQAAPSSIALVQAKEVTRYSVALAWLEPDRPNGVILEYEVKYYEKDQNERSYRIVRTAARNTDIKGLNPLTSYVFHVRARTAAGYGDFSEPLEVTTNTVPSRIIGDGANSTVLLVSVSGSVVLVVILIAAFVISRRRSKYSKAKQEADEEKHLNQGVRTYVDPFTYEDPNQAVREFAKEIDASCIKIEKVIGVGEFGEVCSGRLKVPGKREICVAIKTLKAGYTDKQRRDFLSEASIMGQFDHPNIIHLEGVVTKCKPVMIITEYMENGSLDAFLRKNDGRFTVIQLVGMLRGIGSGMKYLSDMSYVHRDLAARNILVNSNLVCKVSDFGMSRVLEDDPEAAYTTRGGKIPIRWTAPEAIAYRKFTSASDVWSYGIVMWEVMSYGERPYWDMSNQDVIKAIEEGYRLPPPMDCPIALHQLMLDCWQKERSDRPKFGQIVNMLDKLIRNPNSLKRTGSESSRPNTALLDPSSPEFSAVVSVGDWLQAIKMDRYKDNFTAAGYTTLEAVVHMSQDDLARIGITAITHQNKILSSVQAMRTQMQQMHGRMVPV

Activity, inactive:
CC(C)[C@H](NC(=O)[C@H](CS)NC(=O)[C@H](Cc1ccc(O)cc1)NC(=O)[C@@H]1CCCN1C(=O)CCN)C(=O)N[C@@H](Cc1ccc(O)cc1)C(=O)N[C@@H](CCCNC(=N)N)C(=O)NCCC(=O)N[C@@H](CO)C(=O)N[C@@H](Cc1cc2ccccc2[nH]1)C(=O)N[C@@H](CO)C(=O)N[C@@H](CS)C(N)=O

target: Ephrin type-A receptor 4 (Homo sapiens) (UniProt P54764); assay: Binding affinity to EphA4-LBD (unknown origin) at 40 uM by isothermal titration calorimetry; conditions: not given
Sequence (P54764 whole entry, the tested form may be a part): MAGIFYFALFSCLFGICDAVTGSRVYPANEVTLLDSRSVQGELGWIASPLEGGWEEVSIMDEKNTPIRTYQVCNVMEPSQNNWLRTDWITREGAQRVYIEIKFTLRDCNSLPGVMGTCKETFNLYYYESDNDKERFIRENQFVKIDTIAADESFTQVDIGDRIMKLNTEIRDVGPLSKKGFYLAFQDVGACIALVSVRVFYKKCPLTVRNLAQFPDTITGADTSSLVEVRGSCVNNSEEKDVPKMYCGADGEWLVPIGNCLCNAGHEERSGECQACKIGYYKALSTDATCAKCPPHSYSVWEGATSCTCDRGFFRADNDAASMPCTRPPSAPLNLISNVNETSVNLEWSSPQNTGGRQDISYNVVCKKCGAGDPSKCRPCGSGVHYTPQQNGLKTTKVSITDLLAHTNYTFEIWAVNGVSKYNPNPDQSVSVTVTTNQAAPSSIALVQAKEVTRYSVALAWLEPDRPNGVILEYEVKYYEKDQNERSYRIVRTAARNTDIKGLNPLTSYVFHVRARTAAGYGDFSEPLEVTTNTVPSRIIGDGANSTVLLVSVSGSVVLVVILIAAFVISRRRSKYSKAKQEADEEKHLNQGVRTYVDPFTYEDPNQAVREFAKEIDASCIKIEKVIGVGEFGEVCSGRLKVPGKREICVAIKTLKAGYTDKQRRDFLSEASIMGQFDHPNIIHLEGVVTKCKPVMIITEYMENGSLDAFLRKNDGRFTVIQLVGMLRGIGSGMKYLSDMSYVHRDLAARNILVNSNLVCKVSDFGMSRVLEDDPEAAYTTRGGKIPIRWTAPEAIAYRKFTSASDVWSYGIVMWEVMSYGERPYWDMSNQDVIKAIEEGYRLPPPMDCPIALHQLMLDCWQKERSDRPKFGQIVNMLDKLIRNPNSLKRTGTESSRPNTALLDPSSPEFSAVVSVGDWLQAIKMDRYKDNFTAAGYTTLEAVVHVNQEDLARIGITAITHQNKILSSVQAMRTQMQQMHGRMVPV

Activity, inactive:
CC(C)[C@H](NC(=O)[C@H](C)NC(=O)[C@H](Cc1ccc(O)cc1)NC(=O)[C@@H]1CCCN1C(=O)CCN)C(=O)N[C@@H](Cc1ccc(O)cc1)C(=O)N[C@@H](CCCNC(=N)N)C(=O)N[C@H]1CC[C@@H]1C(=O)N[C@H](CO)C(=O)N[C@@H](Cc1c[nH]c2ccccc12)C(=O)N[C@@H](CO)C(=O)N[C@@H](C)C(N)=O
CC(C)[C@H](NC(=O)[C@H](C)NC(=O)[C@H](Cc1ccc(O)cc1)NC(=O)[C@@H]1CCCN1C(=O)CCN)C(=O)N[C@@H](Cc1ccc(O)cc1)C(=O)N[C@@H](CCCNC(=N)N)C(=O)N1CC[C@H]1C(=O)N[C@@H](CO)C(=O)N[C@@H](Cc1c[nH]c2ccccc12)C(=O)N[C@@H](CO)C(=O)N[C@@H](C)C(N)=O
CC(C)[C@H](NC(=O)[C@H](C)NC(=O)[C@H](Cc1ccc(O)cc1)NC(=O)[C@@H]1CCCN1C(=O)CCN)C(=O)N[C@@H](Cc1ccc(O)cc1)C(=O)N[C@@H](CCCNC(=N)N)C(=O)N1CC[C@@H](C(=O)N[C@@H](CO)C(=O)N[C@@H](Cc2c[nH]c3ccccc23)C(=O)N[C@@H](CO)C(=O)N[C@@H](C)C(N)=O)C1 (H-[βAla]PYAVYR[βPro(3R)]SWSA-NH2)
CC(C)[C@H](NC(=O)[C@H](C)NC(=O)[C@H](Cc1ccc(O)cc1)NC(=O)[C@@H]1CCCN1C(=O)CCN)C(=O)N[C@@H](Cc1ccc(O)cc1)C(=O)N[C@@H](CCCNC(=N)N)C(=O)N1CC(C(=O)N[C@@H](CO)C(=O)N[C@@H](Cc2c[nH]c3ccccc23)C(=O)N[C@@H](CO)C(=O)N[C@@H](C)C(N)=O)C1 (H-[βAla]PYAVYR[Azetidine3carboxylic]SWSA-NH2)
CC(C)[C@H](NC(=O)[C@H](C)NC(=O)[C@H](Cc1ccc(O)cc1)NC(=O)[C@@H]1CCCN1C(=O)CCN)C(=O)N[C@@H](Cc1ccc(O)cc1)C(=O)N[C@@H](CCCNC(=N)N)C(=O)N1CC[C@@H]1C(=O)N[C@@H](CO)C(=O)N[C@@H](Cc1c[nH]c2ccccc12)C(=O)N[C@@H](CO)C(=O)N[C@@H](C)C(N)=O
CC(C)[C@H](NC(=O)[C@H](C)NC(=O)[C@H](Cc1ccc(O)cc1)NC(=O)[C@@H]1CCCN1C(=O)CCN)C(=O)N[C@@H](Cc1ccc(O)cc1)C(=O)N[C@@H](CCCNC(=N)N)C(=O)N1CC[C@H](C(=O)N[C@@H](CO)C(=O)N[C@@H](Cc2c[nH]c3ccccc23)C(=O)N[C@@H](CO)C(=O)N[C@@H](C)C(N)=O)C1 (H-[βAla]PYAVYR[βPro(3S)]SWSA-NH2)
CC(C)[C@H](NC(=O)[C@H](C)NC(=O)[C@H](Cc1ccc(O)cc1)NC(=O)[C@@H]1CCCN1C(=O)CCN)C(=O)N[C@@H](Cc1ccc(O)cc1)C(=O)N[C@@H](CCCNC(=N)N)C(=O)N1CCC[C@H](C(=O)N[C@@H](CO)C(=O)N[C@@H](Cc2c[nH]c3ccccc23)C(=O)N[C@@H](CO)C(=O)N[C@@H](C)C(N)=O)C1 (H-[βAla]PYAVYR[X2]SWSA-NH2)
